Laboratory results from patent US6004957A, “Sulfonamide inhibitors of aspartyl protease” (Vertex Pharmaceuticals, Incorporated, priority 1998, dated 1999).
Where a name gives a salt, the structure may show the parent alone.

Tested on: HIVIIIb in CCRM-CEM cells
Assay: Anti-viral potency in CCRM-CEM cells acutely infected with HIVIIIb (method of Meek et al.), extracellular p24 antigen
Format: cell-based, HIV-1
Settings: Human immunodeficiency virus 1, HIV replication, Table VIII, read-out: IC90 Range
Description: As discussed above, the novel compounds of the present invention are excellent ligands for aspartyl proteases, particularly HIV-1 and HIV-2 proteases. Accordingly, these compounds are capable of targeting and inhibiting late stage events in HIV replication, i.e., the processing of the viral polyproteins by HIV encoded proteases. […] Because aspartyl protease is essential for the production of mature virions, inhibition of that processing effectively blocks the spread of virus by inhibiting the production of infectious virions, particularly from chronically infected cells. […] Other anti-viral assays have confirmed the potency of these compounds.
Compounds of formula I were tested for their antiviral potency in several virological assays. In the first assay, the compounds were added as a solution in dimethylsulfoxide (DMSO) to a test cell culture of CCRM-CEM cells, a strain of CD4^+ human T-cell lymphoma cells, previously acutely infected with HIVIIIb using standard protocols (see Meek, T. D. et al., "Inhibition of HIV-1 protease in infected T-lymphocytes by synthetic peptide analogues", Nature, 343, p. 90 (1990). Preferred compounds are those which are able to inhibit 90% of viral infectivity at a concentration of 1 μM or less. More preferred compounds are those which are able to inhibit 90% of viral infectivity at a concentration of 100 nM or less.
The effect of the compounds on inhibiting the replication of the virus was measured by determining the HIV extracellular p24 antigen concentration using a commercial enzyme immunoassay (obtained from Coulter Corporation, Hialeah, Fla.).

Row | SMILES | IC90 [nM]
1 | COc1ccc(S(=O)(=O)N(CC2CCCC2)C[C@@H](O)[C@H](Cc2ccccc2)NC(=O)O[C@H]2CCOC2)cc1 [Compound 140, N-cyclopentylmethyl-N-((2 syn,3S)-2-hydroxy-4-phenyl-3-((S)-tetrahydrofuran-3-yloxycarbonylamino)-butyl)-4-methoxy-benzenesulfonamide] | < 100
2 | C=CCOC(=O)N[C@@H](Cc1ccccc1)[C@H](O)CN(CC1CCCC1)S(=O)(=O)c1ccc(OC)cc1 [Compound 141, N-((3-allyloxycarbonylamino)-(2 syn,3S)-2-hydroxy-4-phenyl-butyl)-N-cyclopentylmethyl-4-methoxy-benzenesulfonamide] | 101 to 1000
3 | COc1ccc(S(=O)(=O)N(CC2CCCC2)C[C@@H](O)[C@H](Cc2ccccc2)NC(=O)OCc2cccnc2)cc1 [Compound 142] | < 100
4 | CC(C)CN(C[C@@H](O)[C@H](Cc1ccccc1)NC(=O)O[C@H]1CCOC1)S(=O)(=O)c1cccnc1 [Compound 144, Pyridine-3-sulfonic acid ((2 syn,3S)-2-hydroxy-4-phenyl-3-((S)-tetrahydrofuran-3-yloxycarbonylamino)-butyl)-isobutyl-amide, trifluoroacetic acid salt] | 101 to 1000
5 | CC(C)CN(C[C@@H](O)[C@H](Cc1ccccc1)NC(=O)O[C@H]1CCOC1)S(=O)(=O)c1ccc(-c2ccon2)s1 [Compound 145, 5-Isoxazol-3-yl-thiophene-2-sulfonic acid ((2 syn,3S)-2-hydroxy-4-phenyl-3-((S)-tetrahydrofuran-3-yloxycarbonylamino)-butyl)-isobutyl-amide] | 101 to 1000
6 | C=CCOC(=O)N[C@@H](Cc1ccccc1)[C@H](O)CN(CC1CCCC1)S(=O)(=O)c1ccc(NC(C)=O)cc1 [Compound 146, N-(4-((3-(Allyloxycarbonylamino)-(2 syn,3S)-2-hydroxy-4-phenyl-butyl)-cyclopentylmethylsulfamoyl)-phenyl)-acetamide] | 101 to 1000
7 | CC(=O)Nc1ccc(S(=O)(=O)N(CC2CCCC2)C[C@@H](O)[C@H](Cc2ccccc2)NC(=O)OCc2cccnc2)cc1 [Compound 147, N-(4-(Cyclopentylmethyl-((2 syn,3S)-2-hydroxy-4-phenyl-3-(pyridin-3-yl-methoxycarbonylamino)-butyl)-sulfamoyl)-phenyl)-acetamide] | 101 to 1000
8 | O=C(N[C@@H](Cc1ccccc1)[C@H](O)CN(CC1CCCC1)S(=O)(=O)c1ccccc1)O[C@H]1CCOC1 [Compound 148, N-Cyclopentylmethyl-N-((2 syn,3S)-2-hydroxy-4-phenyl-3-((S)-tetrahydrofuran-3-yloxycarbonylamino)-butyl)-benzenesulfonamide] | < 100
9 | O=C(N[C@@H](Cc1ccccc1)[C@H](O)CN(CC1CCCC1)S(=O)(=O)c1cccnc1)O[C@H]1CCOC1 [Compound 149, Pyridine-3-sulfonic acid cyclopentylmethyl-((2 syn,3S)-2-hydroxy-4-phenyl-3-((S)-tetrahydrofuran-3-yloxycarbonylamino)-butyl)-amide] | 101 to 1000
10 | CC(C)CN(C[C@@H](O)[C@H](Cc1ccccc1)NC(=O)O[C@H]1CCOC1)S(=O)(=O)N1CCCCC1 [Compound 150, Piperidine-1-sulfonic acid ((2 syn,3S)-2-hydroxy-4-phenyl-3-((S)-tetrahydrofuran-3-yloxycarbonylamino)-butyl)-isobutyl-amide] | 101 to 1000
11 | O=C(N[C@@H](Cc1ccccc1)[C@H](O)CN(CC1CCCC1)S(=O)(=O)c1ccc(OC(F)(F)F)cc1)O[C@H]1CCOC1 [Compound 151] | 1000 to 10000
12 | C=C(COC)COC(=O)N[C@@H](Cc1ccccc1)[C@H](O)CN(CC(C)C)S(=O)(=O)c1ccc(NC(C)=O)cc1 [Compound 155, N-4-((2-(syn)-Hydroxy-3-((2-methoxymethyl-allyloxycarbonylamino)-4-(S)-phenyl-butyl)-isobutyl-sulfamoyl)-phenyl)-acetamide] | 101 to 1000
13 | C=CCOC(=O)N[C@@H](Cc1ccccc1)[C@H](O)CN(CC1CCCC1)S(=O)(=O)c1ccc2c(c1)CCN2C(C)=O [Compound 156] | 101 to 1000
14 | COc1ccc(S(=O)(=O)N(CC2CCCCC2)C[C@@H](O)[C@H](Cc2ccccc2)NC(=O)O[C@H]2CCOC2)cc1 [Compound 158, N-Cyclohexylmethyl-N-((2 syn,3S)-2-hydroxy-4-phenyl-3-((S)-tetrahydrofuran-3-yloxycarbonylamino)-butyl)-4-methoxy-benzenesulfonamide] | < 100
15 | O=C(N[C@@H](Cc1ccccc1)[C@H](O)CN(CC1CCCCC1)S(=O)(=O)c1ccc(F)cc1)O[C@H]1CCOC1 [Compound 159, N-Cyclohexylmethyl-4-fluoro-N-((2 syn,3S)-2-hydroxy-4-phenyl-3-((S)-tetrahydrofuran-3-yloxycarbonylamino)-butyl)-benzenesulfonamide] | 101 to 1000
16 | CC(=O)Nc1ccc(S(=O)(=O)N(CC2CCCCC2)C[C@@H](O)[C@H](Cc2ccccc2)NC(=O)O[C@H]2CCOC2)cc1 [Compound 160, N-(4-(Cyclohexylmethyl)-((2 syn,3S)-2-hydroxy-4-phenyl-3-((S)-tetrahydrofuran-3-yloxycarbonylamino)-butyl)-sulfamoyl-phenyl)-acetamide] | < 100
17 | C=C(COC)COC(=O)N[C@@H](Cc1ccccc1)[C@H](O)CN(CC1CCCC1)S(=O)(=O)c1ccc(OC)cc1 [Compound 162] | 1000 to 10000
18 | COc1ccc(S(=O)(=O)N(CC(C)C)C[C@@H](O)[C@H](Cc2ccccc2)NC(=O)OCc2ccncc2)cc1 [Compound 163, N-((2 syn,3S)-2-Hydroxy-4-phenyl-3-(pyridin-4-yl-methoxycarbonylamino)-butyl)-N-isobutyl-4-methoxy-benzenesulfonamide] | 101 to 1000
19 | Cc1ccc(S(=O)(=O)N(CC(C)C)C[C@@H](O)[C@H](Cc2ccccc2)NC(=O)O[C@H]2CCOC2)cc1 [Compound 165, N-((2 syn,3S)-2-Hydroxy-4-phenyl-3-((syn)-tetrahydrofuran-3-yloxycarbonylamino)-butyl)-N-isobutyl-4-methyl-benzenesulfonamide] | 101 to 1000
20 | O=C(N[C@@H](Cc1ccccc1)[C@H](O)CN(CC1CCCC1)S(=O)(=O)c1ccc(O)cc1)OCc1cccnc1 [Compound 166, N-cyclopentylmethyl-4-hydroxy-N-((2 syn,3S)-2-hydroxy-4-phenyl-3-(pyridin-3-yl-methoxycarbonylamino)-butyl)-benzenesulfonamide] | < 100
21 | CC(C)CN(C[C@@H](O)[C@H](Cc1ccccc1)NC(=O)O[C@H]1CCOC1)S(=O)(=O)c1ccc([N+](=O)[O-])cc1 [Compound 167, N-((2 syn,3S)-2-Hydroxy-4-phenyl-3-((S)-tetrahydrofuran-3-yloxycarbonylamino)-butyl)-N-isobutyl-4-nitro-benzenesulfonamide] | 101 to 1000
22 | O=C(N[C@@H](Cc1ccccc1)[C@H](O)CN(CC1CCCC1)S(=O)(=O)c1ccc(O)cc1)O[C@H]1CCOC1 [Compound 169, N-Cyclopentylmethyl-4-hydroxy-N-((2 syn,3S)-2-hydroxy-4-phenyl-3-((S)-tetrahydrofuran-3-yloxycarbonylamino)-butyl)-benzenesulfonamide] | < 100
23 | O=C(N[C@@H](Cc1ccccc1)[C@H](O)CN(CC1CCCC1)S(=O)(=O)c1ccc([N+](=O)[O-])cc1)O[C@H]1CCOC1 [Compound 170, N-Cyclopentylmethyl-N-((2 syn,3S)-2-hydroxy-4-phenyl-3-((S)-tetrahydrofuran-3-yloxycarbonylamino)-butyl)-4-nitro-benezensulfonamide] | 101 to 1000
